Active and inactive are the calls of the source. The calls are words filed in the database; no cut-off is given here.
What was measured:
[1] = molecular target: T1, Vitamin D3 receptor (Homo sapiens) (UniProt P11473); test: Binding affinity to human full-length Vitamin D receptor assessed as relative binding affinity at 1 uM incubated for 2 hrs by fluorescence polarization based competitive binding assay relative to calcipotriol
T1 sequence (whole entry): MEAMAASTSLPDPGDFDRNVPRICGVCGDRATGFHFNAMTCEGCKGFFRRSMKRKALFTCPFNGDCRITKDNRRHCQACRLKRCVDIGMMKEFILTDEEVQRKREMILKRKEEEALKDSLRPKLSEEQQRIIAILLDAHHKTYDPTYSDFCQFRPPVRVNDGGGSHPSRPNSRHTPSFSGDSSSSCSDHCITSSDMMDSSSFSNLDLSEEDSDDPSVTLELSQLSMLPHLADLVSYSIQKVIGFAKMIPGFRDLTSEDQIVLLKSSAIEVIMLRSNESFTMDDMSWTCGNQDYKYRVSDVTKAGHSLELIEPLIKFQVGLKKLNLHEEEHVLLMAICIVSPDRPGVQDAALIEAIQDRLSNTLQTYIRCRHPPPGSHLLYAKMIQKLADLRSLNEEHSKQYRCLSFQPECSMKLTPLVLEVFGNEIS

[2] = Cytotoxicity against human LX-2 cells by CCK-8 assay; assay type: toxicity, cell-based
[3] = molecular target: T1, Vitamin D3 receptor (Homo sapiens); test: Agonist activity at Vitamin D receptor in human LX-2 cells assessed as transcriptional activity by measuring induction of CYP24A expression at 0.5 uM by RT-qPCR analysis relative to control; assay type: cell-based

What does the source list for C=CCC(O)(CC=C)CCCOc1cccc(COc2ccc(CO)c(CO)c2)c1?
RBA [1]: 20.2%; IC50 [2]: > 30 µM

Which results are given for OCCCCCOc1cccc(/C=C/c2ccc(CO)c(CO)c2)c1?
RBA [1]: 5.78%; IC50 [2]: > 30 µM

What does the source list for CCC(O)(CC)CCCOc1cccc(COc2ccc(CO)c(CO)c2)c1?
Activity ([3]; filed as agonist): Active; RBA ([1]; filed as agonist): 43.4%; IC50 [2]: > 30 µM

With O=C(CCCOc1cccc(COc2ccc(CO)c(CO)c2)c1)N1CCCCC1 as the compound, how does the RBA [1] read?
The RBA was 24.9%.

What about the IC50 [2] of the same compound?
The IC50 was over 30 µM.

Which RBA [1] does the source give for OCCCCCCOc1cccc(COc2ccc(CO)c(CO)c2)c1 here?
Its RBA is 9.25%.

What about the IC50 [2] of the same compound?
Its IC50 is over 30 µM.

With OCCCCCOc1ccc(CCc2ccc(CO)c(CO)c2)cc1 as the compound, how does the Activity [3] read?
The Activity was “inactive”.

What about the RBA ([1]; filed as agonist) of the same compound?
Its RBA is 46.2%.

And the IC50 [2]?
Its IC50 is over 30 µM.

What does the source list for OCCCCCOc1cccc(COc2ccc(CO)c(CO)c2)c1?
RBA [1]: 9.83%; IC50 [2]: > 30 µM

Which RBA [1] does the source give for COC(=O)CCCCCOc1cccc(COc2ccc(CO)c(CO)c2)c1 here?
The RBA was 29.5%.

What about the IC50 [2] of the same compound?
Its IC50 is over 30 µM.

Which RBA [1] does the source give for CCC(O)(CC)CCCCCOc1cccc(/C=C/c2ccc(CO)c(CO)c2)c1 here?
The RBA was 33.5%.

And the IC50 [2]?
Its IC50 is over 30 µM.

With CCN(CC)CCCOc1cccc(COc2ccc(CO)c(CO)c2)c1 as the compound, how does the RBA ([1]; filed as agonist) read?
Its RBA is 49.7%.

And the IC50 [2]?
The IC50 was over 30 µM.

What does the source list for OCCCCOc1cccc(/C=C/c2ccc(CO)c(CO)c2)c1?
RBA [1]: 11.6%; IC50 [2]: > 30 µM

Which RBA [1] does the source give for OCCCCCOc1ccc(/C=C/c2ccc(CO)c(CO)c2)cc1 here?
Its RBA is 36.4%.

And the IC50 [2]?
The IC50 was over 30 µM.

Which RBA ([1]; filed as agonist) does the source give for COC(=O)CCCCOc1cccc(COc2ccc(CO)c(CO)c2)c1 here?
Its RBA is 45.7%.

And the IC50 [2]?
The IC50 was over 30 µM.

For CCC(O)(CC)CCCOc1cccc(C(Oc2ccc(CO)c(CO)c2)C(C)C)c1 (centres undefined), which RBA [1] is on record?
Its RBA is 36.4%.

And the IC50 [2]?
The IC50 was over 30 µM.

Which RBA [1] does the source give for COC(=O)CCCOc1cccc(/C=C/c2ccc(CO)c(CO)c2)c1 here?
The RBA was 34.1%.

And the IC50 [2]?
Its IC50 is over 30 µM.

With CCN(CC)C(=O)CCCOc1cccc(COc2ccc(CO)c(CO)c2)c1 as the compound, how does the RBA [1] read?
Its RBA is 8.67%.

And the IC50 [2]?
The IC50 was over 30 µM.

What does the source list for OCc1ccc(/C=C/c2cccc(OCCCC(F)(F)F)c2)cc1CO?
Activity ([3]; filed as agonist): Active; RBA [1]: 30.1%; IC50 [2]: > 30 µM

For CC(C)(O)CCCCCOc1cccc(COc2ccc(CO)c(CO)c2)c1, which RBA [1] is on record?
The RBA was 27.2%.

What about the IC50 [2] of the same compound?
The IC50 was over 30 µM.

With CN1CCN(CCCOc2ccc(/C=C/c3ccc(CO)c(CO)c3)cc2)CC1 as the compound, how does the RBA [1] read?
The RBA was 21.4%.

And the IC50 [2]?
Its IC50 is over 30 µM.

With C=CCC(O)(CC=C)CCCOc1cccc(/C=C/c2ccc(CO)c(CO)c2)c1 as the compound, how does the RBA ([1]; filed as agonist) read?
Its RBA is 40.5%.

And the IC50 [2]?
Its IC50 is over 30 µM.

What does the source list for OCCCCOc1cccc(CCc2ccc(CO)c(CO)c2)c1?
Activity [3]: inactive; RBA [1]: 32.4%; IC50 [2]: > 30 µM

Which Activity ([3]; filed as agonist) does the source give for C=CCC(O)(CC=C)CCCCCOc1cccc(COc2ccc(CO)c(CO)c2)c1 here?
The Activity was “Active”.

What about the RBA ([1]; filed as agonist) of the same compound?
Its RBA is 46.2%.

What about the IC50 [2] of the same compound?
Its IC50 is over 30 µM.

Which results are given for C=CCC(O)(CC=C)CCCCOc1ccc(CCc2ccc(CO)c(CO)c2)cc1?
Activity [3]: inactive; RBA [1]: 16.2%; IC50 [2]: > 30 µM

Which results are given for CC(C)(O)CCCCOc1ccc(CCc2ccc(CO)c(CO)c2)cc1?
Activity [3]: inactive; RBA [1]: 11.6%; IC50 [2]: > 30 µM

Which RBA [1] does the source give for O=C(O)CCCOc1cccc(/C=C/c2ccc(CO)c(CO)c2)c1 here?
Its RBA is 37%.

What about the IC50 [2] of the same compound?
The IC50 was over 30 µM.

What does the source list for OCc1ccc(/C=C/c2ccc(OCCCN3CCOCC3)cc2)cc1CO?
RBA [1]: 32.4%; IC50 [2]: > 30 µM

Source: ChEMBL document CHEMBL5620415, “Design, synthesis and anti-hepatic fibrosis activity of novel diphenyl vitamin D receptor agonists” (Eur J Med Chem, 2023)
